The conditions of series [1]: room temperature; presence of water (U.S. Pat. No. 5,324,746); cited from earlier work.
Series [2] has as its system indomethacin-induced rat gastric ulcers. Particulars: subcutaneous, 50 μg/kg; cited from earlier work.
The subject of series [3] is isolated canine parietal cell preparation. As to the kind of experiment: Inhibition of histamine-stimulated acid secretion in an isolated canine parietal cell preparation. The class given is cell-based. Particulars: Canis lupus familiaris, read-out: IC50 (nM), concentration required to inhibit 50% of maximal histamine-stimulated acid secretion. The text has this:
Concentrations required to inhibit 50% of maximal histamine-stimulated acid secretion in an isolated canine parietal cell preparation is shown in Table 1 below.

With `CCCCC(C)(O)C/C=C/[C@H]1C(O)CC(=O)[C@@H]1CCCCCCC(=O)OC` (stereo partly drawn) [Misoprostol], the chemical stability entry in series [1] was “chemically unstable at room temperature and breaks down in the presence of water”. The reduced lesion formulation entry in series [2] was “up to 60%”. For the same compound, the IC50 in series [3] turned out to be 3.8 nM.

Values taken from patent US20100010046A1, “PHARMACEUTICAL FORMULATION FOR PARENTERAL ADMINISTRATION” (IRONWOOD PHARMACEUTICALS, INC., priority 2006, published 2010).
